# What was measured:
# ES-MSC [1] = test: ES-MSC on pneumatospun collagen type I scaffold, in vitro culture; type: cell-based, human; conditions: 6 weeks in chondrogenic medium
# Source text: (§1) ES-MSC derived from treatment with ALK-5 inhibitor SB525334, as described in Example 1, produced meniscus cartilage-like tissues when seeded upon blow spun collagen scaffolds in in vitro and in vivo.
# ES-MSC microspheroids = test: Microspheroid building chamber neo-cartilage formation; type: cell-based, human; conditions: 3 weeks in chamber
# Source text: Using a microspheroid building block approach, ES-MSC derived from treatment with ALK-5 inhibitor SB525334, as described in Example 1, were used to produce bone and cartilage (osteochondral) tissues. […] The OC tissue unit was implanted into an ex vivo model to develop biphasic tissue with an upper cartilage and lower calcified cartilage layer (FIG. 11, panels J-M). Both upper and lower tissues were Safranin O and collagen type II positive (FIG. 11, panels J-K), while the lower tissue producing calcified neo tissue (FIG. 11, panel L; von Kossa positive) and osteopontin (FIG. 11, panel M).
# ES-MSC [2] = test: ES-MSC seeded scaffolds implanted subcutaneously into a nude mouse; type: in vivo; conditions: 1 week in vitro, then subcutaneous in nude mouse for 5 weeks
# Source text: as §1
# [3] = test system: ESC cell lines (H9, AND-1, AND-2, and SHEF-1); conditions: monolayer cultures on Matrigel coated flasks, before sorting; cited from earlier work
# H9 ES-MSC = test: Chondrogenic gene expression of pellets relative to monolayer controls; type: cell-based, human
# Protocol: (§2) Monolayer-expanded ES-MSC (passage 2-5) were detached using Accutase® and 0.5×10^6 cells in 0.5 ml of chondrogenic medium were centrifuged at 900 rpm (~770 G) for 5 minutes to form high-density pellets. At least 5-6 pellets, for each ES-MSC condition, were cultured in serum-free chondrogenic medium consisting of Dulbecco's Modified Eagle Medium (Mediatech Inc., Manassas, VA), 1×ITS supplement (Sigma-Aldrich, St. Louis, MO), 100 nM Dexamethasone (Sigma), 1.25 mg/ml human serum albumin (Bayer, Leverkusen, Germany), 100 μM ascorbic acid 2-phosphate (Sigma), 1% penicillin/streptomycin/gentamycin (PSG, Gibco, Carlsbad, CA), and 10 ng/ml TGFβ3 (PeproTech, Rocky Hill, NJ). Pellets for ex vivo implantation were cultured for 3 days before implantation; pellets for histologic or gene expression analysis were maintained in culture for 3 weeks with media changes every 3 to 4 days.
# (§3) Total RNA was extracted from using the RNeasy kit as recommended by the manufacturer (QIAGEN, Valencia, CA). […] Expression of the following genes was quantified POU5F1/OCT4 and SOX2 (for pluripotency); FOXA1 and SOX17 (for endoderm); NES and PAX6 (for ectoderm); NKX2-5, MSX1, NCAM1, and SOX9 (for mesoderm); ITGB1/CD29 (for MSC phenotype); and COL1A1, COL2A1, COL10A1, COMP, ACAN, and SOX9 and RUNX2 (for chondrogenesis). […]
# HADC 100 ES-MSC = test: as above; type: cell-based, human; conditions: HADC 100 ES-MSC pellets
# Protocol: as §2, §3
# H9 ESC = test: Flow cytometry of MSC surface markers after ESC to MSC differentiation with ALK-5 inhibitor; type: cell-based, human; conditions: H9 ES-MSC
# Protocol: An overview of the differentiation process is provided in FIG. 1, panel K. To create cell clusters or embryoid bodies of uniform size, ESCs were removed from CellStart culture using Accutase® for 2-5 minutes until single cells were observed. […] After 24 hours, the cell clusters were suspended at 2.5-3×10^5 cells per ml in ultra-low adherent 6 well plates (Corning) in StemPro-34 serum free medium (ThermoFisher) supplemented with 2 mM L-glutamine (ThermoFisher Scientific), 50 μg/ml Ascorbic acid (Stemcell Technologies, Vancouver, Canada) and 1.8 μl/ml ITS-G (100× Insulin-Transferrin-Selenium; ThermoFisher); termed as “complete SP-34 medium”.
# The medium was changed every 2 days by removing cell clusters into 15 ml sterile tubes and permitted to gravity settle for 10 minutes at room temperature. Most of the media was removed using a pipette to leave approximately 300-500 μl of medium. Freshly made medium (with the appropriate ALK5 inhibitor or DMSO) was replaced at the same volumes and well number into new ultra-low adherent plates.
# After treatment with the appropriate ALK5 inhibitor, the cell clusters were removed by gravity settling and suspended in complete SP-34 medium supplemented with bFGF 20 ng/ml (without any ALK-5 inhibitor or DMSO) and transferred onto fibronectin (FN) coated (10 μg/ml; Fibronectin from human plasma, Sigma-Aldrich, St. Louis, MO) T75 cm^2 flasks (passage zero (P0)). The emerging cells and remaining cell clusters were exposed to Accutase® for 5-10 minutes, gently triturated and counted. The cells were seeded at […] in T75 FN coated flask (P1) and medium changed every 3-4 days until 80-90% confluence. At this point, the cells were detached using Accutase® for continued culture, screened for surface marker phenotype characterization (flow cytometry), placed into 3D cultures to assess chondrogenic differentiation capacity, or preserved in liquid nitrogen.
# Cells were detached using Accutase®, washed and suspended in FACS buffer at a concentration of 0.2×10^6 cells per 100 μl. A panel of CD molecules were used, each with the following fluorochromes: CD34-FITC, CD45-BV510, CD73-APC (BioLegend, San Diego, California) CD90-PE-Cy7, and CD105-BV650 (BD Biosciences, Franklin Lakes, New Jersey). Matching isotype control IgGs with the same fluorochrome conjugates were used for background gating. […] Data was acquired with the Novocyte flow cytometer (ACEA Biosciences Inc. San Diego, CA) and analyzed using FlowJo software (version 10, FlowJo, LLC, Ashland, OR) to determine percentage positive signal for each molecule relative to isotype background non-specific signal controls.
SMILES,Safranin O staining (GAG deposition) on collagen scaffold (ES-MSC [1]),cartilage GAGs staining of neo-cartilage tissue (ES-MSC microspheroids),collagen type II staining of neo-cartilage tissue (ES-MSC microspheroids),"meniscus cartilage-like tissue, Safranin O staining (ES-MSC [2])",CD73+CD90+CD34− cell population [3] [%],"chondrogenic genes (COL2A1, ACAN, COMP and SOX9) relative to monolayer controls (H9 ES-MSC)","chondrogenic genes (COL2A1, ACAN, COMP and SOX9) relative to monolayer controls (HADC 100 ES-MSC)","CD73 positive cells (H9 ESC; SB431542 10 μM 10 days, N=5) [%]","CD90 positive cells (H9 ESC; SB431542 10 μM 10 days, N=5) [%]","CD105 positive cells (H9 ESC; SB431542 10 μM 10 days, N=5) [%]","triple positive for CD73, CD90 and CD105 (H9 ESC; co-expression analysis) [%]"
Cc1cccc(-c2[nH]c(C(C)(C)C)nc2-c2ccc3nccnc3c2)n1 [SB525334],extensive GAG deposition,positive for cartilage GAGs,positive for collagen type II,strong Safranin O staining profile,,,,,,,
NC(=O)c1ccc(-c2nc(-c3ccc4c(c3)OCO4)c(-c3ccccn3)[nH]2)cc1 [SB431542],,,,,42,higher levels,higher levels,99±1,99±1,94±4,92±9
